Source: a melting point compilation (Tetko et al.; mined from patent text by program, amines drawn as free bases though some values may be those of a salt)

Row | SMILES | melting point
1 | CCN(CC)c1nsc(NC(=O)NC)c1C#N | 182 to 183 °C
2 | O=C(O)c1ccc([C@H]2CC[C@H](C3CCC4(CC3)OCCO4)CC2)cc1F | 228 °C
3 | Cn1cc2c(cc1=O)CCCC2=O | 94 to 97 °C
4 | CCOC(=O)CCc1cccc(N)c1 | 132 to 135 °C
5 | Oc1ccc(-c2ccc(OC(F)(F)F)cc2)cc1 | 140 °C
6 | Cc1cc(C)c2c(c1)SCC2c1ccc(C(C)C)cc1 (centres undefined) | 74 to 75 °C
7 | CC1CC(=O)NN=C1c1ccc2c(c1)C1(CC1)C(=O)N2 (centres undefined) | 291 to 293 °C
8 | COCCCC#Cc1ccccc1S(N)(=O)=O | 59 to 61 °C
9 | Cc1ccc(S(=O)(=O)C(CC(=O)C(C)(C)C)c2ccc(Cl)cc2)cc1 (centres undefined) | 170 to 171 °C
10 | CC(C)(C)c1cc(C2=NNC(=O)CC2)cc(C(C)(C)C)c1O | 200 to 203 °C
11 | CCOC(=O)c1c(C(F)(F)F)nc(C(F)(F)F)c(C(=O)OC)c1N=[N+]=[N-] | 46 to 47 °C
12 | COC(=O)c1cccc(-n2cncn2)c1 | 115 to 120 °C
13 | COC(=O)c1ccc(Cc2c(Cl)n(C)c3cc(Cl)c(CCNC(=O)N(C)C)cc23)c(OC)c1 | 186 to 189 °C
14 | CCCCCCCC(=O)CCCCCC(=O)N[C@@H](C)C(=O)O | 84 to 86 °C
15 | CN(C)c1ncc(-c2cccc(N)c2)cn1 | 116 to 117 °C
16 | COc1ccc(COc2c(C)c(C)c3c(c2C)C(c2ccc(C(C)C)cc2)C(C)(C)O3)cc1 (centres undefined) | 95 to 96 °C
17 | CCOC(=O)CCc1cc(Cl)ccc1C(=O)CCCNC(N)=O | 127 to 129 °C

Row | SMILES | melting point
18 | CCCCNC(=O)[C@@H](C[C@H](O)[C@H](CC1CCCCC1)N=[N+]=[N-])C(C)C | 100 °C
19 | CC(C)(C)C(NC(=O)c1cc(Cl)cc(Cl)c1)Nc1c(Nc2cccnc2)c(=O)c1=O (centres undefined) | 260 to 262 °C
20 | CC(C)(O)c1ccc(Cl)nc1 | 67 to 71 °C
21 | O=C1CC(O)c2ccccc21 (centres undefined) | 182 to 187 °C
22 | CCCCCCCCCCCCCCCCCCOCCOCCO | 45 to 46 °C
23 | CCN(CC)c1nc2cc(C)nn2c2c1cnc1c2cnn1CC | 106 to 108 °C
24 | COc1ccc2cc([C@H](C)C(=O)NNC(=O)CCCO[N+](=O)[O-])ccc2c1 | 117 to 119 °C
25 | CC(C)(C)c1cc(CCC(=O)O)cc2nc(-c3ccc(-c4nc5cc(CCC(=O)O)cc(C(C)(C)C)c5o4)s3)oc12 | 247 to 248 °C
26 | O=C(O)C1Cc2cc3c(=O)c4c(Cl)cccc4oc3c(Cl)c2O1 (centres undefined) | 291 to 294 °C
27 | COC(=O)c1cc(C(=O)O)cc(C(=O)OC)c1C(=O)OC | 143 to 144 °C
28 | Cc1ccc(N(c2ccc(C)cc2)c2c(F)cc(F)c(F)c2F)cc1 | 95 °C
29 | CCOc1ccc2c(c1)n(C13CC4CC(CC(C4)C1)C3)c(=O)n2S(=O)(=O)c1ccc([N+](=O)[O-])cc1OC | 231 °C
30 | Nc1c(N=O)c(=O)n(CC2CCC2)c(=O)n1CC1CCC1 | 251 to 252 °C
31 | CN(C)c1nc(N)nc2c1ncn2C1CC(F)C(CO)O1 (centres undefined) | 96 to 100 °C
32 | COCSc1ccc2c(c1)CC[C@@H]1[C@@H]2CC[C@]2(C)C(=O)CC[C@@H]12 | 55 °C
33 | CC(C)(C)C(=O)CN1C(=O)c2ccccc2C1=O | 96 to 99 °C
34 | CCOC(=O)c1cn(-c2ccc(F)c(NC(=O)OC(C)(C)C)c2F)c2nc(Cl)c(F)cc2c1=O | 128 to 131 °C

Continued, values first:

Row | melting point | SMILES
35 | 108 °C | Cc1noc(NC(=O)c2c(O)ccc3cc(-c4cccc(O)c4)ccc23)c1C
36 | 185 to 188 °C | Cn1cc(-c2ccccc2)c(=S)c(-c2cccc(Br)c2)c1
37 | 65 to 67 °C | Brc1cncc(OCc2ccccc2)c1
38 | 236 °C | CN1C=Nc2cc(Cl)c3cc4ccccc4cc3c2C1
39 | 187 to 188 °C | CCOc1c(C(N)=O)oc2c3ccccc3n(-c3ccccc3)c12
40 | 154 to 155 °C | COc1ccc(-c2nnn(-c3ccc(C(F)(F)F)cc3F)c2C)cc1
41 | 87.3 to 89.3 °C | O=[N+]([O-])c1ccc(Oc2cccc3ccccc23)nc1
42 | 183 to 184 °C | CC(=O)c1cc(C)cc(NC(=O)c2nnnn2Cc2ccccc2)c1O
43 | 233 °C | Sc1nc2ccccc2n1Cc1cc(Cl)cc(Cl)c1
44 | 184 to 187 °C | O=C(O)c1cc2cc(OCCc3ccccc3)ccc2[nH]1
45 | > 310 °C | COc1cc2c(=O)[nH]c3c(c2cc1OC)c1ccccc1n3C
46 | 198 to 200 °C | CCOC(=O)c1sc(N)nc1-c1ccc(Cl)cc1
47 | 138 to 139 °C | CN1CCc2nc3cc(Cl)ccc3c(Oc3ccccc3)c2C1
48 | 118 to 120 °C | Cc1ccc2c3c(ccc2n1)OC[C@H](CN1CCN(c2ccc(C)c(C)c2)CC1)O3
49 | 127 °C | CC(=O)OCCNc1nnc(-c2ccccc2)cc1C
50 | 110 to 112 °C | C1=CSC(Sc2ccccc2)(c2ccc(Sc3ccccc3)s2)C1 (centres undefined)
51 | 132 to 136 °C | CN1CCN(c2cc(Cl)cc3c2c(=O)n(Cc2ccccc2)c(=O)n3C)CC1
52 | 168 to 169 °C | COC(=O)C1Cc2cc(Br)ccc2N1C(=O)c1ccccc1 (centres undefined)
53 | 204 to 206 °C | COC(=O)c1ccc(-c2nsc3nc4ccccc4n23)cc1
54 | 89 to 90 °C | FC(F)(F)C1(c2ccccc2)c2ccccc2Oc2ccccc21

Row | melting point | SMILES
55 | 94 to 95 °C | Cc1oc2c(C)c(C)c(NCc3ccccc3)c(C)c2c1-c1ccc(C(C)C)cc1
56 | 147 to 148 °C | CS(=O)(=O)c1ccc(Oc2cc(OCc3cccc(Cl)n3)c3[nH]c(C4=NCC(CC(N)=O)S4)cc3c2)cc1 (centres undefined)
57 | 96 to 98 °C | COc1ccc(C(=O)Nc2c(Cl)cc(C=O)cc2Cl)cc1OC1CCCC1
58 | 84 to 86 °C | N#Cc1ccccc1Oc1ccc(Cl)cc1
59 | 130 to 134 °C | CCOC(=O)Nc1cc(-n2cc(C(=O)OCC)c(=O)c3c(OCc4ccccc4)c(F)c(F)cc32)c(F)cc1F
60 | 207 to 213 °C | CN1C(=O)CN(c2ccccc2)NC1=O
61 | 287 to 288 °C | O=C1Nc2ccccc2Sc2c1csc2Cl
62 | 197 to 199 °C | Oc1ccc(-c2nc3cc(O)c(Cl)cc3o2)cc1F
63 | 130 to 132 °C | COc1ccc(-c2nccc3c(CC#N)cccc23)cc1
64 | 132 °C | C#CCn1c(Sc2ccccc2)c(CC)c(=O)[nH]c1=O
65 | 139 °C | CCOC(=O)N1CCN(c2ccc(-n3cnn(C(CC)C(=O)c4ccc(Cl)cc4)c3=O)cn2)CC1 (centres undefined)
66 | 221 °C | OC1CSC(Oc2ccc(-c3ccc(N4CCCCC4)cc3)nc2)C(O)C1O (centres undefined)
67 | 102 to 103 °C | Fc1ccc(N2CCN(CCCOc3ccccc3-c3nnco3)CC2)cc1
68 | 240 to 241 °C | NC(=O)c1ccc(N2CCN(Cc3cn4cc(Cl)ccc4n3)CC2)cc1
69 | 131 to 133 °C | CC(C)(C)C(=O)OC(COc1cccc2[nH]nnc12)CN1CCC(COc2ccccc2)CC1 (centres undefined)
70 | 239 to 242 °C | Cn1cc(-c2ccc(Cl)cc2)c(=S)c(-c2cccc(C(F)(F)F)c2)c1
71 | 78 to 81 °C | COc1ccnc(C(C)Sc2nc3cc(OC(F)(F)C(F)F)ccc3[nH]2)c1 (centres undefined)
72 | 189 to 191 °C | Cc1cccc(NC(c2ccccc2O)c2ccc3cccnc3c2O)n1 (centres undefined)
73 | 222 °C | CCCC(=O)NC(=O)C1c2ccccc2Oc2ccccc21
74 | 166 to 167 °C | N#Cc1cccc(NC(=O)CN2CCN(c3ncccc3C#N)CC2)c1
